The test system of one assay is Staphylococcus aureus. In words: MIC Agar Dilution Test, Staphylococcus aureus. It counts as cell-based. The following applies: S. aureus. An excerpt: (§1) The following strains of microorganisms were used in Minimum Inhibitory Concentration (MIC) tests for phenyl 2-acetoxyethanoic acid in this example and for benzoyl peroxide, chlorhexidine gluconate and triclosan in the following examples. In total, five strains were used for S. aureus, five strains were used for S. epidermidis, two strains were used for M. sedentarius, three strains were used for M. luteus, two strains were used for B. epidermis, three strains were used for C. minutissium, one strain was used for S. marcescens, three strains were used for P. aeruginosa, four strains were used for E. coli, and thirty-two strains were used for P. acnes.
(§2) Antimicrobial effects were determined based on MIC Agar Dilution Test utilizing Trypticase Soy Agar II (BBL) incorporation plates with and without 10% intralipid (Kabi Pharmacia Inc.). Initially, phenyl 2-acetoxyethanoic acid was prepared as a 2 mg/ml (0.2%) solution in water. This solution with serial dilution was incorporated into the test agar plates. The MIC test gave similar results when the same species but a different strain was used.
(§3) Under the same test conditions described in Example 1, benzoyl peroxide was prepared as a 2.5 mg/ml (0.25%) solution in water. This solution with serial dilution was incorporated into the test agar plates. Typical test results are shown as follows.
(§4) Under the same test conditions described in Example 1, chlorhexidine gluconate was prepared as a 2 mg/ml (0.2%) solution in water. This solution with serial dilution was incorporated into the test agar plates. Typical test results are shown as follows.
(§5) Under the same test conditions described in Example 1, triclosan was prepared as a 10 mg/ml (1%) solution in water. This solution with serial dilution was incorporated into the test agar plates. Typical test results are shown as follows.
(§6) Ten different species of bacteria were used in Minimum Inhibitory Concentration (MIC) tests. The bacteria include S. aureus, S. epidermidis,M. sedentarius, M. luteus, B. epidermis, C. minutissium, S. marcescens, P. aeruginosa, E. coli, and P. acnes. In addition various sources and strains of these bacteria were also included in the tests, and up to 32 different strains of P. acnes were used.
(§7) The test substance selected from phenyl 2-acetoxyethanoic acid, benzoyl peroxide, chlorhexidine gluconate and triclosan was dissolved in water, and the solution with serial dilution was incorporated into the test agar plates. The plates containing different concentrations of test substance were inoculated with a strain of bacterium. MIC is defined as the lowest concentration of the test substance in the plate in which there is no growth of the microorganism.
(In agar dilution, organisms are placed on agar that contains the substance at set levels.)

The next assay concerns Micrococcus sedentarius. Put plainly: MIC Agar Dilution Test, Micrococcus sedentarius. In kind it is cell-based. The following applies: Kytococcus sedentarius, M. sedentarius.
Excerpt: as §1, §2, §3, §4, §5, §6, §7

In a further assay the test system is Micrococcus luteus. Put plainly: MIC Agar Dilution Test, Micrococcus luteus. In kind it is cell-based. Conditions: M. luteus.
Excerpt: as §1, §2, §3, §4, §5, §6, §7

In a further assay the test system is Brevibacterium epidermis. In words: MIC Agar Dilution Test, Brevibacterium epidermis. It counts as cell-based. Conditions: B. epidermis.
Excerpt: as §1, §2, §3, §4, §5, §6, §7

Assay [1] relates to Corynebacterium minutissium. Put plainly: MIC Agar Dilution Test, Corynebacterium minutissium. In kind it is cell-based. The following applies: C. minutissium.
Excerpt: as §1, §2, §3, §4, §5, §6, §7

The test system of the next assay is Pseudomonas aeruginosa. In words: MIC Agar Dilution Test, Pseudomonas aeruginosa. In kind it is cell-based. Conditions: P. aeruginosa.
Excerpt: as §1, §2, §3, §4, §5, §6, §7

The nature of assay [2]: axillary antiodor effectiveness (treatment). It counts as in vivo, human. The following applies: 0.5%. An excerpt:
In another study the subjects were instructed not to take a shower in the morning. After the foul odor developed in both axillae, the subjects were instructed to apply the test composition containing 0.5% phenyl 2-acetoxyethanoic acid or diphenyl 2-acetoxyethanoic acid on the left underarm area and the control vehicle on the right underarm area. Topical applications were made once daily for several days.
Usually the left underarm ceased emanating any detectable foul odor after 1 day of topical use. The subjects were instructed at this time to apply the test composition containing 0.5% phenyl 2-acetoxyethanoic acid or diphenyl 2-acetoxyethanoic acid on the right underarm area also. Topical applications were made once daily for several days. The right axilla ceased to emanate any detectable foul odor after 1 to 2 days of topical use.

Assay [3] is described as follows: prevention and treatment of foot malodor. In kind it is in vivo, human. The following applies: 1% in talc powder. The procedure: A typical test for prophylactic effect in preventing the development of, as well as treatment of, foot malodor was carried out as follows. A test composition in powder form was prepared by mixing 1 g of finely powdered phenyl 2-acetoxyethanoic acid with 99 g of talc powder. The talc powder alone was used as a control vehicle.
A human subject had persistent foot malodor all year round. […] On the first morning, the subject was instructed to spread the test composition lightly on the left foot and also inside the hose. The control vehicle was used on the right foot and inside the hose. […] The subject was then instructed to apply the test composition on both feet the second morning.
A total of six subjects (three females; three males) participated in several studies.
A test composition containing 1% phenyl 2-acetoxyethanoic acid in powder form was prepared by mixing thoroughly 1 g of finely powdered compound with 99 g of talc powder. The talc powder alone was used as a control vehicle. The test composition and the control vehicle were packaged in one-ounce powder containers. The participating subjects were instructed to lightly spread the test composition on the bottom of the left foot and inside the hose or sock on the first morning.
The criteria for ineffectiveness or effectiveness of the test composition were based on presence or absence of malodor as detected by olfactory sense of smell. Both feet were monitored by the subject and at least one other person in the evening.
The subjects were then instructed to apply the test composition on both feet the next morning. […] The same topical applications were continued by all the participants for several days to confirm the above results.

The nature of assay [4]: treatment of oral infections. The following applies: 2% composition diluted to 0.1%; oral rinse twice daily. It counts as in vivo, human. The procedure: Compositions for treatment of oral infections may contain an aryl 2-acetoxyethanoic acid as the only active ingredient. In this case a phenyl 2-acetoxyethanoic acid or diphenyl 2-acetoxyethanoic acid 2% composition was formulated by dissolving the active ingredient 2 g in ethanol 78 ml and propylene glycol 20 ml. Before use, this composition was diluted to 0.1% with water by mixing one part of the composition with 19 parts of water. The treatment involves oral rinse, wash and gargle by keeping the diluted composition inside the oral cavity for a few minutes, and then spit out. Such procedure may be repeated twice daily for several days until the infection is eradicated usually within 5-7 days.

Where [5] appears, read: 10% intralipid, read-out: MIC Lipid.
The mark [6] stands for this setting: no lipid, read-out: MIC No Lipid.

Converted amounts (≈) assume the structure as drawn. “Also recorded” adds a separate entry of the source. Read-outs that look alike come from different tables or passages of the source.

`CC(=O)OC(C(=O)O)c1ccccc1` (centres unmarked) [phenyl 2-acetoxyethanoic acid]: the MIC in the assay on Staphylococcus aureus (setting [5]) came out at 500 µg/mL (≈ 2.57 mM); in the assay on Staphylococcus aureus (setting [6]), 500 µg/mL (≈ 2.57 mM); in the assay with Micrococcus sedentarius (setting [5]), 500 µg/mL (≈ 2.57 mM); with Micrococcus sedentarius (setting [6]), 500 µg/mL (≈ 2.57 mM); in the assay with Micrococcus luteus (setting [5]) it was 1000 µg/mL (≈ 5.15 mM); with Micrococcus luteus (setting [6]), 1000 µg/mL (≈ 5.15 mM). Further, the MIC in the assay with Brevibacterium epidermis (setting [5]) is 1000 µg/mL (≈ 5.15 mM); in the assay on Brevibacterium epidermis (setting [6]), 1000 µg/mL (≈ 5.15 mM); in assay [1] (setting [5]) it was 500 µg/mL (≈ 2.57 mM); in [1] (setting [6]) it was 500 µg/mL (≈ 2.57 mM); with Pseudomonas aeruginosa (setting [5]) it was 1000 µg/mL (≈ 5.15 mM); with Pseudomonas aeruginosa (setting [6]), 1000 µg/mL (≈ 5.15 mM). Also, the “overall axillary antiodor effectiveness” value in assay [2] (topical) is on record as “topically effective in eradicating the axillary foul odor”. For the same compound, the “left axilla on continued use” value in assay [2] (continued, once daily for several days) is on record as “continued to maintain the condition free of any offensive foul odor”. Also, the “time after which left underarm usually ceased emanating any detectable foul odor” value in assay [2] (no-shower study, left side) was 1 days. The “intensity of foul odor, left underarm” value in [2] (no-shower study, once daily) is listed as “diminished in intensity of foul odor after one to two days of topical application”. The “time after which left underarm ceased emanating any detectable foul odor” value in assay [2] (Example 6, once daily, one person, left side) was 1 days. Moreover, the “time after which right axilla ceased to emanate any detectable foul odor” value in assay [2] (Example 6, right side, formerly vehicle) is 1 days. In addition, the “overall effectiveness against foot malodor” value in assay [3] is “topically effective in preventing the development of and in treating foot malodor; also recorded: topically effective in preventing the development of and was also therapeutically effective for topical treatment of foot malodor”. In addition, the “malodor of both feet at the end of the second day” value in [3] (both feet treated) was “produced no detectable malodor”. For the same compound, the “malodor of left foot by the first evening” value in [3] (left foot treated, right foot vehicle) is on record as “produced no detectable malodor in all the participating subjects”. The “malodor on continued application” value in assay [3] (several days) is recorded as “complete suppression of malodor was sustained”. Also, the “time within which oral infection is usually eradicated” value in assay [4] lay in the range of 5 to 7 days.

What is called MIC is the lowest concentration that inhibits growth of the organism.
